In US5621102A, “Process for preparing enantiomerically pure xanthine derivatives” (Cell Therapeutics, Inc., priority 1995, dated 1997):

Assays:
[1] = system: TNF-α release from IL-1α activated PEC; assay: TNF-α release from IL-1α activated PEC, ELISA; type: cell-based; settings: Mus musculus, 50 ng/ml IL-1α, at the tested time points (24, 48, 72 hrs), read-out: inhibition of induced levels of TNF-α
Experimental: Cells were isolated and treated with or without CT1501R (250 μM) 1 hour prior to IL-1-α activation. The supernatants were collected at 24, 48 or 72 hrs following activation and assayed for TNF-α by ELISA (+/-SD).
Murine peritoneal exudate cell macrophages (PEC) were isolated by perfusion of mouse peritoneum and plated into 96-well trays at 5×10^5 cells per well. Cells were stimulated with 5 μg/ml Salmonella abortus equi-derived endotoxin CLPS; Sigma Chemical Co., L-1887) or 50 ng/ml IL-1α (Genzyme; Cambridge, Mass.) with or without the addition of CT1501R added to the cultures one hour prior to addition of the stimulus. At various times thereafter, supernatants were removed and levels of either TNF-α or IL-1α were assayed using commercial 96-well microtiter immunoassay kits (Genzyme; TNF; Endogen, Boston, Mass.; IL-1α) according to manufacturer's specifications. For the adhesion studies, early passage human umbilical vein endothelial cells (HUVEC) were obtained from commercial suppliers (Clonetics, San Diego, Calif. or Cell Systems, Seattle, Wash.) and cultured in defined, Hepes buffered, serum free medium (Cell Systems, cat 301-180) supplemented with acidic FGF (Cell Systems cat 401-111). […] After addition of […] Hanks Balanced Salt Solution (HBSS), the microtiter plate was then analyzed on a Millipore Cytofiuor fluorescent plate reader (excitation 488 nm; emission 525 nm). […]

[2] = system: hair follicles of nu/nu mice; assay: nude mouse hair studies, topical application; type: in vivo
Source text: This example illustrates nude mouse hair studies involving topical application of CT1501R. Six to eight week old, female, nu/nu mice from Charles River Laboratories were housed at Biosupport Research Support Services (Seattle, Wash.) in autoclaved micro isolator units with hyperchlorinated autoclaved water, irradiated rodent chow and kept under a laminar flow hood. Caging was changed weekly, and water was changed twice weekly. The mice were acclimated for 5 days before beginning each study.
The first topical formulation was prepared by adding CT1501R to a heated hydrophilic ointment (USP) at a 1% concentration, and allowed to solidify.
Nude mice were painted twice daily for 16 days with the first topical formulation of CT1501R on the left flank and another compound in the same base on the right flank with sterile applicators. Mice were handled under the laminar flow hood with applicator wearing face mask and sterile gloves. After 16 days, one mouse was sacrificed by cervical dislocation and skin biopsies were taken of the treated areas of the shoulder/flank and from the non-treated area of the dorsal pelvis (rump). Specimens were placed in 10% buffered formalin solution. Biopsies were sent to a veterinary dermopathologist for histopathology. Six weeks following treatment, a second mouse was euthanatized and biopsied the same as the first. Samples were sent for histopathology.
In a second experiment, topical application of CT1501R was performed along with a commercial topical minoxidil preparation (Rogaine®, Upjohn) that is approved for a hair growth indication. Five to six week old, female, nu/nu mice from Bantin and Kingman Universal were housed at Biosupport Research Support Services (Seattle, Wash.) in autoclaved micro isolator units with hyper chlorinated autoclaved water, irradiated rodent chow and kept under a laminar flow hood. Caging was changed weekly, and water was changed twice weekly. Mice were acclimated for 7 days before beginning study, […]

[3] = system: IL-6; assay: mouse plasma IL-6 ELISA after endotoxin; type: in vivo, mice
Experimental: FIG. 8 illustrates data from mouse plasma IL-6 ELISA measurements. Data are compiled from the average of duplicate ELISA measurements from a single experiment with each point representing pooled plasma from three mice.
For ELISA measurements of cytokine levels in plasma, blood was collected by retro-orbital or cardiac puncture of anesthetized mice, immediately centrifuged and the EDTA plasma stored at -70° C. Particulate free plasma was thawed on ice and cytokine levels determined utilizing commercial ELISA assays with normal mouse plasma used to generate standard curves. Murine tumor necrosis factor-α and interleukin-1α kits were purchased from Genzyme (Cambridge, Mass.) and Endogen (Boston, Mass.), respectively. Each data point was an average of two ELISA measurements made from EDTA serum pooled from three mice. The data summarized in Table 3 were compiled from two independent experiments; data from Table 4 and 5 were from single experiments of three mice per data point.
In particular, peak levels observed at 6, 12 and 18 hours post endotoxin were decreased 1.2, 4.3 and 3.2-fold, respectively. Finally, IL-6 measurements were made in a similar manner (Table 6, FIG. 8).

## C[C@@H](O)CCCCn1c(=O)c2c(ncn2C)n(C)c1=O [CT1501R, (R)-1-(5-hydroxyhexyl)-3,7-dimethylxanthine]
[1]
  inhibition at 250 µM: 50 to 70%
[2]; first experiment, 1% in hydrophilic ointment, twice daily for 16 days
  hair follicles, histopathology of treated vs non treated skin sections: significantly more normal appearing hair follicles than the non treated sections
[2]; second experiment, 60% ETOH, 10% water, 30% PEG base, twice daily, 34 days
  hair follicles, subjective histopathological examination: greatest concentration of hair folicles
[3]; 3 hours post endotoxin
  decrease of peak plasma IL-6 vs endotoxin only: 1.7 fold
[3]; 6 hours post endotoxin
  decrease of peak plasma IL-6 vs endotoxin only: 2.0 fold
[3]; 12 hours post endotoxin
  decrease of peak plasma IL-6 vs endotoxin only: 4.1 fold
